Experimental data reported in the supplement of paper PMC10307832.

Tests used:
Test in all cases: relative viability (nuclei count vs DMSO), 5 days (fraction); higher = more cells survive
[1] = test system: A-427
Method in brief: (§1)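 Relative viability equals treated-well nuclei counts divided by vehicle-well nuclei counts. Counts came from 4× images of lung cancer cell lines grown in 1536-well plates for 5 days after pin-tool dosing on the day after seeding. Dosing used one drug alone or a fixed anchor-drug dose plus five library-drug doses (not always all listed) in √10 steps, and values are medians of duplicate plates.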

[2] = test system: CAL-12T
Method in brief: as §1

[3] = test system: LK-2
Method in brief: as §1

[4] = test system: NCI-H1623
Method in brief: as §1

[5] = test system: NCI-H1648
Method in brief: as §1

[6] = test system: NCI-H1650
Method in brief: as §1

[7] = test system: NCI-H1734
Method in brief: as §1

[8] = test system: NCI-H2009
Method in brief: as §1

[9] = test system: UMC-11
Method in brief: as §1

`COc1nc(C)cnc1NS(=O)(=O)c1cccnc1-c1ccc(-c2nnco2)cc1` [Zibotentan] + COc1cccc2cc(-c3nc([C@H]4CC[C@H](C(=O)O)CC4)n4ncnc(N)c34)[nH]c12 [OSI-027] (partner 0.5 µM) was tested. Which relative viability ([1]; first compound 0.08 µM) did it give?
Its relative viability is 0.54.

What about the relative viability ([1]; first compound 0.253 µM) of the same compound?
The relative viability was 0.425.

What about the relative viability ([1]; first compound 0.8 µM) of the same compound?
The relative viability was 0.501.

What about the relative viability ([1]; first compound 2.53 µM) of the same compound?
Its relative viability is 0.579.

And the relative viability ([2]; first compound 0.08 µM)?
Its relative viability is 0.559.

And the relative viability ([2]; first compound 0.253 µM)?
Its relative viability is 0.551.

And the relative viability ([2]; first compound 0.8 µM)?
The relative viability was 0.614.

And the relative viability ([2]; first compound 2.53 µM)?
The relative viability was 0.629.

What about the relative viability ([3]; first compound 0.08 µM) of the same compound?
Its relative viability is 0.207.

What about the relative viability ([3]; first compound 0.253 µM) of the same compound?
Its relative viability is 0.173.

And the relative viability ([3]; first compound 0.8 µM)?
Its relative viability is 0.244.

What about the relative viability ([3]; first compound 2.53 µM) of the same compound?
Its relative viability is 0.216.

What about the relative viability ([4]; first compound 0.08 µM) of the same compound?
The relative viability was 0.423.

What about the relative viability ([4]; first compound 0.253 µM) of the same compound?
Its relative viability is 0.42.

And the relative viability ([4]; first compound 0.8 µM)?
Its relative viability is 0.424.

And the relative viability ([4]; first compound 2.53 µM)?
Its relative viability is 0.443.

And the relative viability ([5]; first compound 0.08 µM)?
The relative viability was 0.255.

And the relative viability ([5]; first compound 0.253 µM)?
Its relative viability is 0.241.

What about the relative viability ([5]; first compound 0.8 µM) of the same compound?
Its relative viability is 0.256.

What about the relative viability ([5]; first compound 2.53 µM) of the same compound?
Its relative viability is 0.242.

And the relative viability ([6]; first compound 0.08 µM)?
Its relative viability is 0.579.

And the relative viability ([6]; first compound 0.8 µM)?
Its relative viability is 0.644.

What about the relative viability ([6]; first compound 2.53 µM) of the same compound?
Its relative viability is 0.716.

And the relative viability ([7]; first compound 0.08 µM)?
The relative viability was 0.655.

What about the relative viability ([7]; first compound 0.253 µM) of the same compound?
Its relative viability is 0.558.

And the relative viability ([7]; first compound 0.8 µM)?
Its relative viability is 0.604.

And the relative viability ([7]; first compound 2.53 µM)?
The relative viability was 0.668.

And the relative viability ([8]; first compound 0.08 µM)?
Its relative viability is 0.677.

And the relative viability ([8]; first compound 0.253 µM)?
Its relative viability is 0.632.

And the relative viability ([8]; first compound 0.8 µM)?
The relative viability was 0.711.

What about the relative viability ([8]; first compound 2.53 µM) of the same compound?
Its relative viability is 0.754.

And the relative viability ([9]; first compound 0.08 µM)?
Its relative viability is 0.562.

And the relative viability ([9]; first compound 0.253 µM)?
Its relative viability is 0.462.

What about the relative viability ([9]; first compound 0.8 µM) of the same compound?
Its relative viability is 0.467.

What about the relative viability ([9]; first compound 2.53 µM) of the same compound?
Its relative viability is 0.514.

How did the relative viability ([1]; first compound 0.01 µM) turn out when `O=c1cc(N2CCOCC2)oc2c(-c3cccc4c3sc3ccccc34)cccc12` + COc1cccc2cc(-c3nc([C@H]4CC[C@H](C(=O)O)CC4)n4ncnc(N)c34)[nH]c12 [OSI-027] (partner 0.5 µM) was run?
Its relative viability is 0.514.

And the relative viability ([1]; first compound 0.03162 µM)?
Its relative viability is 0.469.

And the relative viability ([1]; first compound 0.1 µM)?
Its relative viability is 0.337.

What about the relative viability ([1]; first compound 0.3162 µM) of the same compound?
The relative viability was 0.484.

What about the relative viability ([1]; first compound 1 µM) of the same compound?
The relative viability was 0.587.

What about the relative viability ([2]; first compound 0.01 µM) of the same compound?
Its relative viability is 0.69.

And the relative viability ([2]; first compound 0.03162 µM)?
The relative viability was 0.71.

What about the relative viability ([2]; first compound 0.1 µM) of the same compound?
Its relative viability is 0.599.

And the relative viability ([2]; first compound 0.3162 µM)?
The relative viability was 0.728.

What about the relative viability ([2]; first compound 1 µM) of the same compound?
Its relative viability is 0.707.

What about the relative viability ([3]; first compound 0.01 µM) of the same compound?
The relative viability was 0.24.

And the relative viability ([3]; first compound 0.03162 µM)?
Its relative viability is 0.361.

What about the relative viability ([3]; first compound 0.1 µM) of the same compound?
Its relative viability is 0.181.

What about the relative viability ([3]; first compound 0.3162 µM) of the same compound?
Its relative viability is 0.219.

What about the relative viability ([3]; first compound 1 µM) of the same compound?
The relative viability was 0.212.

And the relative viability ([4]; first compound 0.01 µM)?
Its relative viability is 0.45.

What about the relative viability ([4]; first compound 0.03162 µM) of the same compound?
The relative viability was 0.477.

And the relative viability ([4]; first compound 0.1 µM)?
The relative viability was 0.362.

And the relative viability ([4]; first compound 0.3162 µM)?
The relative viability was 0.407.

What about the relative viability ([4]; first compound 1 µM) of the same compound?
Its relative viability is 0.429.

And the relative viability ([5]; first compound 0.01 µM)?
Its relative viability is 0.244.

What about the relative viability ([5]; first compound 0.03162 µM) of the same compound?
Its relative viability is 0.253.

What about the relative viability ([5]; first compound 0.1 µM) of the same compound?
Its relative viability is 0.239.

What about the relative viability ([5]; first compound 0.3162 µM) of the same compound?
The relative viability was 0.235.

And the relative viability ([5]; first compound 1 µM)?
The relative viability was 0.235.

And the relative viability ([6]; first compound 0.01 µM)?
The relative viability was 0.519.

And the relative viability ([6]; first compound 0.03162 µM)?
Its relative viability is 0.631.

And the relative viability ([6]; first compound 0.1 µM)?
The relative viability was 0.535.

What about the relative viability ([6]; first compound 0.3162 µM) of the same compound?
Its relative viability is 0.769.

And the relative viability ([6]; first compound 1 µM)?
Its relative viability is 0.592.

What about the relative viability ([7]; first compound 0.01 µM) of the same compound?
The relative viability was 0.697.

What about the relative viability ([7]; first compound 0.03162 µM) of the same compound?
Its relative viability is 0.599.

What about the relative viability ([7]; first compound 0.1 µM) of the same compound?
Its relative viability is 0.579.

What about the relative viability ([7]; first compound 0.3162 µM) of the same compound?
The relative viability was 0.67.

And the relative viability ([7]; first compound 1 µM)?
Its relative viability is 0.609.

What about the relative viability ([8]; first compound 0.01 µM) of the same compound?
Its relative viability is 0.697.

And the relative viability ([8]; first compound 0.03162 µM)?
Its relative viability is 0.791.

And the relative viability ([8]; first compound 0.1 µM)?
Its relative viability is 0.664.

What about the relative viability ([8]; first compound 0.3162 µM) of the same compound?
Its relative viability is 0.65.

What about the relative viability ([8]; first compound 1 µM) of the same compound?
Its relative viability is 0.654.

And the relative viability ([9]; first compound 0.01 µM)?
The relative viability was 0.472.

What about the relative viability ([9]; first compound 0.03162 µM) of the same compound?
The relative viability was 0.507.

And the relative viability ([9]; first compound 0.1 µM)?
The relative viability was 0.496.

And the relative viability ([9]; first compound 0.3162 µM)?
Its relative viability is 0.526.

And the relative viability ([9]; first compound 1 µM)?
Its relative viability is 0.45.
